What is called IC50 is the point on the concentration scale where inhibition reaches its midpoint.

Bounds are passed on as bounds.

The results in this text go back to ChEMBL document CHEMBL5154652, “Design, synthesis and anti-hepatocellular carcinoma activity of 3-arylisoquinoline alkaloids” (Eur J Med Chem, 2022).

Assay type in all cases: functional, cell-based
In assay [1] the test system is BGC-823. Nature of the assay: Antiproliferative activity against human BGC-823 cells after 72 hrs by MTT assay. To be noted: BGC-823, 72 h. On the technique in general: Tetrazolium dyes change colour on reduction, which living cells bring about.
For assay [2], the system named is MDA-MB-231. As to the kind of experiment: Antiproliferative activity against human MDA-MB-231 cells after 72 hrs by MTT assay. To be noted: MDA-MB-231, 72 h.
Assay [3] has as its system HT-29. As to the kind of experiment: Antiproliferative activity against human HT-29 cells after 72 hrs by MTT assay. The settings on record: HT-29, 72 h.
Assay [4] relates to HCT-116. As to the kind of experiment: Antiproliferative activity against human HCT-116 cells after 72 hrs by MTT assay. To be noted: HCT-116, 72 h.
In assay [5] the test system is A549. Nature of the assay: Antiproliferative activity against human A549 cells after 72 hrs by MTT assay. To be noted: A549, 72 h.
The subject of assay [6] is Huh-7. Nature of the assay: Antiproliferative activity against human Huh-7 cells after 72 hrs by MTT assay. The settings on record: Huh-7, 72 h.
Assay [7] concerns RKO. Nature of the assay: Antiproliferative activity against human RKO cells after 72 hrs by MTT assay.
In assay [8] the test system is SGC-7901. As to the kind of experiment: Antiproliferative activity against human SGC-7901 cells after 72 hrs by MTT assay. The settings on record: SGC-7901, 72 h.
For assay [9], the system named is MCF7. As to the kind of experiment: Antiproliferative activity against human MCF7 cells after 72 hrs by MTT assay. The settings on record: MCF7, 72 h.
Assay [10] has as its system HepG2. Nature of the assay: Antiproliferative activity against human HepG2 cells after 72 hrs by MTT assay. To be noted: HepG2, 72 h.
The test system of assay [11] is SW480. As to the kind of experiment: Antiproliferative activity against human SW480 cells after 72 hrs by MTT assay. To be noted: SW480, 72 h.
The test system of assay [12] is U-251. Nature of the assay: Antiproliferative activity against human U-251 cells after 72 hrs by MTT assay. The settings on record: U-251, 72 h.
In assay [13] the test system is HCCLM9. As to the kind of experiment: Antiproliferative activity against human HCCLM9 cells after 72 hrs by MTT assay. To be noted: HCCLM9, 72 h.
Assay [14] concerns SK-HEP1. As to the kind of experiment: Antiproliferative activity against human SK-HEP1 cells after 72 hrs by MTT assay. To be noted: SK-HEP1, 72 h.
For assay [15], the system named is HGC-27. As to the kind of experiment: Antiproliferative activity against human HGC-27 cells after 72 hrs by MTT assay. The settings on record: HGC-27, 72 h.
Assay [16] relates to L02. As to the kind of experiment: Antiproliferative activity against human L02 cells after 72 hrs by MTT assay. The settings on record: L02, 72 h.
The subject of assay [17] is HL-60. Nature of the assay: Antiproliferative activity against human HL-60 cells after 72 hrs by MTT assay. To be noted: HL-60, 72 h.

On to `CN(C)CCCCc1cc2c(cc1-c1cc3ccc4c(c3cn1)OCO4)OCO2`, for which the IC50 is 83.5 µM in assay [1]; 26.6 µM in assay [2]; 41.6 µM in [3]; 97 µM in [4]; 81.9 µM in [5]; 37.8 µM in assay [6]. For the same molecule, the IC50 in assay [7] was found to be 93.1 µM; in assay [8], 39 µM; in [9], 53.6 µM; in assay [10] it was 55.4 µM; in [11] it was 63.2 µM; in assay [12], 15 µM. The IC50 amounted to 38.5 µM in [13], 35.6 µM in assay [14] and 38.9 µM in assay [15].
Take `CNCc1c(-c2cc3c4c(ccc3cn2)OCO4)ccc2c1OCO2`: the IC50 in [16] turned out to be 74.6 µM; in assay [3], 44.5 µM; in assay [4], 26.7 µM; in [6], 20.2 µM; in [7], 26.7 µM; in assay [10], 26.7 µM. Besides, the IC50 turned out to be 42.7 µM in assay [11] and 7.25 µM in [13].
For `OCc1cc2c(cc1-c1cc3ccc4c(c3cn1)OCO4)OCO2`, the IC50 in [3] came to 46.7 µM; in assay [4], 46.7 µM; in [6], 42.3 µM; in [7], 87.4 µM; in [11] it was 36.9 µM; in [13], 32.7 µM.
In the case of `CN(C)CCc1cc2c(cc1-c1cc3ccc4c(c3cn1)OCO4)OCO2`, the IC50 in assay [1] is 33.6 µM; in [17] it was 130 µM; in assay [2], 30.2 µM; in assay [3], above 150 µM; in assay [4], above 150 µM; in assay [5], 65.2 µM. Also, the IC50 in assay [6] was 17.6 µM; in assay [7], above 150 µM; in [8], 45.1 µM; in assay [9], 61.7 µM; in assay [10] it was 72.5 µM; in assay [11], 36.3 µM. Moreover, the IC50 in [12] was determined as 28.5 µM; in assay [13] it was 21 µM; in assay [14], 32.4 µM; in assay [15], 78.5 µM.
Take `CNCCc1cc(OC)c(OC)cc1-c1cc2ccc3c(c2cn1)OCO3`: the IC50 in assay [1] was 15.8 µM; in assay [17], above 150 µM; in assay [16], above 150 µM; in [2], 68.7 µM; in assay [3] it was 122 µM; in [4], above 150 µM. Further, the IC50 was 42.9 µM in assay [6]; above 150 µM in assay [7]; above 150 µM in [8]; 52.8 µM in assay [9]; 21.8 µM in assay [11]; 43.3 µM in [12]. Also, the IC50 is 20.2 µM in assay [13], 69.9 µM in assay [14] and 93.9 µM in assay [15].
Consider `OCc1c(-c2cc3c4c(ccc3cn2)OCO4)ccc2c1OCO2`, for which the IC50 in assay [16] was above 150 µM; in assay [3], above 150 µM; in assay [4] it was above 150 µM; in assay [6] it was 40.8 µM; in assay [7] it was above 150 µM; in assay [10], above 150 µM. The IC50 in assay [11] and in [13] was above 150 µM each time.
As for `CNCCCCc1cc2c(cc1-c1cc3ccc4c(c3cn1)OCO4)OCO2`, the IC50 in [1] was determined as 26.7 µM; in assay [2], 19.6 µM; in [3], 27.5 µM; in [4], 57.6 µM; in [5], 18.7 µM; in [6], 13.7 µM. The IC50 in assay [7] came out at 81.7 µM; in assay [8] it was 20 µM; in assay [9], 54.6 µM; in assay [10], 23.2 µM; in assay [11] it was 15.2 µM; in [12] it was 10.8 µM. The values for the IC50 in assay [13], in [14] and in assay [15] were 10.4 µM, 16 µM and 55.3 µM, respectively.
For `COc1cc(CCN(C)C)c(-c2cc3ccc4c(c3cn2)OCO4)cc1OC`, the IC50 in assay [1] was 31.6 µM; in [17], above 150 µM; in [16], above 150 µM; in assay [2] it was 103 µM; in [3] it was 146 µM; in [4], above 150 µM. The IC50 in assay [5] is above 150 µM; in [6], 59.5 µM; in [7], above 150 µM; in assay [8] it was 81.9 µM; in assay [9], 94.6 µM; in [10], above 150 µM. In addition, the IC50 is 40.6 µM in [11], 65.1 µM in assay [12], 32.4 µM in assay [13] and above 150 µM in assay [15].
With `COCCc1cc(OC)c(OC)cc1-c1cc2ccc3c(c2cn1)OCO3`, the IC50 is above 150 µM in assay [1]; above 150 µM in assay [17]; above 150 µM in [16]; 128 µM in assay [2]; above 150 µM in assay [3]; above 150 µM in assay [4]. Besides, the IC50 in [5] was above 150 µM; in [6] it was 77 µM; in [7], above 150 µM; in [8] it was above 150 µM; in assay [9], 32.4 µM; in [10], above 150 µM. For the same molecule, the IC50 in assay [11] is 105 µM; in assay [12] it was above 150 µM; in [13] it was above 150 µM; in assay [15] it was 120 µM.
On to `CNCCCc1cc2c(cc1-c1cc3ccc4c(c3cn1)OCO4)OCO2`, for which the IC50 in [1] is 44.9 µM; in [17] it was above 150 µM; in [16], 90.4 µM; in assay [2] it was 39.5 µM; in assay [3], 41.1 µM; in assay [4], 80.9 µM. Besides, the IC50 was determined as 52.1 µM in assay [5]; 19 µM in [6]; 106 µM in [7]; 41.6 µM in [8]; 42.8 µM in assay [9]; 35.7 µM in [10]. For the same molecule, the IC50 in [11] was determined as 29.4 µM; in assay [12], 27.7 µM; in assay [13], 20.4 µM; in assay [14] it was 22.2 µM; in [15], 73.2 µM.
For `CNCCc1cc2c(cc1-c1cc3ccc4c(c3cn1)OCO4)OCO2`, the IC50 in [1] was 25.9 µM; in assay [17] it was 113 µM; in [16], above 150 µM; in assay [2], 19.3 µM; in [3] it was 23 µM; in assay [4], above 150 µM. The IC50 in [6] stood at 15.5 µM; in assay [7], 63.5 µM; in assay [9], 49.9 µM; in assay [10], 45 µM; in assay [11] it was 25.4 µM; in assay [12], 19.1 µM. For the same molecule, the results for the IC50 in [13], in [14] and in [15] were 10 µM, 28.2 µM and 20.9 µM, respectively.
Regarding `CN(C)Cc1c(-c2cc3c4c(ccc3cn2)OCO4)ccc2c1OCO2`, the IC50 in assay [16] is above 150 µM; in [3], 46.7 µM; in assay [6], 25.5 µM; in assay [7], 47 µM; in assay [10], 46.7 µM; in [11] it was 74.7 µM. Also, inhibition in assay [13] was half-maximal at 12.5 µM (IC50).
On to `CN(C)CCCc1cc2c(cc1-c1cc3ccc4c(c3cn1)OCO4)OCO2`, for which the IC50 in assay [1] was 51.8 µM; in assay [17], 93.6 µM; in assay [16], above 150 µM; in assay [2], 35.6 µM; in assay [3], 96.6 µM; in assay [4] it was above 150 µM. The IC50 in assay [5] is 65.7 µM; in assay [6], 20 µM; in assay [7], 126 µM; in [8] it was 55.5 µM; in assay [9], 60.4 µM; in assay [10], 80.4 µM. The IC50 is 40.6 µM in [11]; 24.5 µM in [12]; 15.6 µM in assay [13]; 38.2 µM in assay [14]; above 150 µM in assay [15].
Turning to `CCOC(=O)N(C)CCc1cc2c(cc1-c1cc3ccc4c(c3cn1)OCO4)OCO2`, the IC50 in assay [1] was 49.9 µM; in assay [17], above 150 µM; in assay [16] it was 149 µM; in assay [2], 36.7 µM; in [3] it was 96.6 µM; in assay [4], above 150 µM. For the same molecule, the IC50 in assay [5] was above 150 µM; in [6] it was 19.2 µM; in assay [7], 91.6 µM; in [8], 28.8 µM; in assay [9] it was 69.7 µM; in assay [10] it was 27.3 µM. The IC50 in [11] is 28.6 µM; in assay [12], 51.8 µM; in assay [13], 25.1 µM; in assay [14], 103 µM; in assay [15] it was 99.8 µM.
On to `CN(C=O)CCc1cc2c(cc1-c1cc3ccc4c(c3cn1)OCO4)OCO2`, for which the IC50 was 79.4 µM in [1]; above 150 µM in assay [17]; above 150 µM in assay [16]; 60.9 µM in assay [2]; above 150 µM in assay [3]; 86 µM in assay [4]. Moreover, the IC50 was 96 µM in assay [5]; 63.9 µM in assay [6]; above 150 µM in [7]; above 150 µM in [8]; 130 µM in [9]; 74 µM in assay [10]. Besides, the IC50 is above 150 µM in assay [11]; 53.4 µM in [12]; above 150 µM in [13]; 145 µM in assay [14]; 69 µM in [15].
